Drawing on ChEMBL document CHEMBL1156622, “1,3,4-Oxadiazole-3(2H)-carboxamide derivatives as potential novel class of monoamine oxidase (MAO) inhibitors: synthesis, evaluation, and role of urea moiety” (Bioorg Med Chem, 2008), this text covers inhibition for 13 molecules.

The species named for assay [1] is Rattus norvegicus. In words: Inhibition of Monoamine oxidase in rat brain mitochondria at 0.1 mM by kynuramine fluorimetric assay.
The species named for assay [2] is Rattus norvegicus. Put plainly: Inhibition of Monoamine oxidase in rat brain mitochondria at 0.01 mM by kynuramine fluorimetric assay.
The species named for assay [3] is Rattus norvegicus. In words: Inhibition of Monoamine oxidase in rat brain mitochondria at 1 mM by kynuramine fluorimetric assay.
For assay [4], the species on record is Rattus norvegicus. Put plainly: Inhibition of Monoamine oxidase in rat brain mitochondria at 0.8 mM by kynuramine fluorimetric assay.
For assay [5], the species on record is Rattus norvegicus. In words: Inhibition of Monoamine oxidase in rat brain mitochondria at 0.08 mM by kynuramine fluorimetric assay.
Assay [6] is filed under the species Rattus norvegicus. Put plainly: Inhibition of Monoamine oxidase in rat brain mitochondria at 0.008 mM by kynuramine fluorimetric assay.

Each structure is given as a SMILES string.

Usually inhibition stands for the share of the control response that was lost under treatment. Read a high inhibition as a strong effect.

With `CCCCC1(CCCC)OC(c2cc(C)cc(C)c2)=NN1C(=O)NC(=O)c1c(F)cccc1F`, the inhibition in the assay filed under Rattus norvegicus [1] worked out at 26.2%; in the assay listed under Rattus norvegicus [2], 5.85%; in the assay filed under Rattus norvegicus [3] it was 69.2%.

As to `CCCCC1(CCCC)OC(c2ccc3c(c2)OCO3)=NN1C(=O)NC(=O)c1c(F)cccc1F`, the inhibition is 41% in the assay listed under Rattus norvegicus [1], 8.37% in the assay listed under Rattus norvegicus [2] and 78.4% in the assay listed under Rattus norvegicus [3].

With `CCCCC1(CCCC)OC(c2ccc(Cl)cc2Cl)=NN1C(=O)NC(=O)c1cc(F)c(OC)c(F)c1F`, the inhibition in the assay listed under Rattus norvegicus [1] was 25.9%; in the assay filed under Rattus norvegicus [2], 2.92%; in the assay filed under Rattus norvegicus [3], 81.8%.

As for `CCCCC1(CCCC)OC(c2ccc(Cl)cc2)=NN1C(=O)NC(=O)c1c(F)cccc1F`, the inhibition in the assay listed under Rattus norvegicus [1] was determined as 6.03%; in the assay listed under Rattus norvegicus [2] it was 0%; in the assay filed under Rattus norvegicus [3] it was 58.8%.

Consider `CCCCC1(CCCC)OC(c2cc(OC)c(OC)c(OC)c2)=NN1C(=O)NC(=O)c1c(F)cccc1F`, for which the inhibition in the assay filed under Rattus norvegicus [1] amounted to 21.7%; in the assay filed under Rattus norvegicus [2], 0%; in the assay filed under Rattus norvegicus [3] it was 69.2%.

Consider `CCCCC1(CCCC)OC(c2ccc(Cl)cc2Cl)=NN1C(=O)NC(=O)c1ccccc1Cl`, for which the results for the inhibition in the assay filed under Rattus norvegicus [1], in the assay listed under Rattus norvegicus [2] and in the assay listed under Rattus norvegicus [3] were 24.9%, 5.86% and 78%, respectively.

In the case of `CCCCC1(CCCC)OC(c2ccc3c(c2)OCO3)=NN1C(=O)NC(=O)c1ccccc1Cl`, the results for the inhibition in the assay listed under Rattus norvegicus [1], in the assay listed under Rattus norvegicus [2] and in the assay listed under Rattus norvegicus [3] were 27.5%, 6.73% and 75.4%, respectively.

As to `CCCCC1(CCCC)OC(c2cc(OC)c(OC)c(OC)c2)=NN1C(C)=O`, the inhibition in the assay listed under Rattus norvegicus [4], in the assay listed under Rattus norvegicus [5] and in the assay listed under Rattus norvegicus [6] was 0% each time.

Take `CCCCC1(CCCC)OC(c2ccc3c(c2)OCO3)=NN1C(C)=O`: the results for the inhibition in the assay filed under Rattus norvegicus [4], in the assay listed under Rattus norvegicus [5] and in the assay filed under Rattus norvegicus [6] were 0%, 0% and 1.21%, respectively.

Consider `CCCCC1(CCCC)OC(c2cc(C)cc(C)c2)=NN1C(C)=O`, for which the values for the inhibition in the assay listed under Rattus norvegicus [4], in the assay listed under Rattus norvegicus [5] and in the assay filed under Rattus norvegicus [6] were 42.8%, 17.7% and 2.89%, respectively.

With `CCCCC1(CCCC)OC(c2ccco2)=NN1C(=O)NC(=O)c1c(F)cccc1F`, the inhibition was 23.7% in the assay listed under Rattus norvegicus [1], 1.84% in the assay filed under Rattus norvegicus [2] and 75.1% in the assay listed under Rattus norvegicus [3].

On to `CCCCC1(CCCC)OC(c2cc(C)cc(C)c2)=NN1C(=O)NC(=O)c1ccccc1Cl`, for which the inhibition in the assay filed under Rattus norvegicus [1] came to 24.6%; in the assay filed under Rattus norvegicus [2], 4.12%; in the assay listed under Rattus norvegicus [3], 72.8%.

As for `CCCCC1(CCCC)OC(c2ccc(Cl)cc2Cl)=NN1C(=O)NC(=O)c1c(F)cccc1F`, the inhibition in the assay filed under Rattus norvegicus [1] is 25.1%; in the assay filed under Rattus norvegicus [2], 5.43%; in the assay listed under Rattus norvegicus [3], 72.5%.
